Here are results for 4 compounds from patent US20060034819A1, “Proteins and methods useful for assessing risk of cardiovascular disease” (UNITHER PHARMA, INC., priority 2002, published 2006).

The test system of one experiment is NOS. The following applies: LNMMA compared with ADMA; cited from earlier work.
Another experiment deals with mutant DDAH. Nature of the experiment: fluorescence polarization immunoassay (FPIA) with ADMA-OG. The class given is binding, Human. An excerpt: Fluorescence Polarization Immunassay (FPIA) is another homogeneous solution phase immunoassay for small molecule analytes, which has the unique advantage that a positive signal is generated by competition. FPIA detects the difference between mutant DDAH-bound and free fluorescently-labelled ligand as the polarization of emitted light when excited by plane-polarized light. Small molecule ligands tumble so fast during the excited state that emitted light is nearly isotropic, whereas, the larger mutant DDAH-bound ligand hardly rotates at all during the excited state and therefore emits highly polarized or anisotropic light. Analyte is measured by its ability to compete with label for binding to mutant DDAH, and thereby lower the polarization of emitted light, and increase its intensity at certain angles relative to the incident light. […] Free ADMA is measured as a function of its concentration-dependent ability to compete with fluorescein-ADMA for binding to mutant DDAH thereby reducing polarized emission.
ADMA is conjugated through its alpha-amino group to Oregon Green (OG) and purified by reversed phase HPLC. […] At 10^−10 M ADMA-OG, polarization is determined after equilibration with various concentrations of mutant DDAH ranging from 10^−10 M to 10^−6 M. The minimum value should be equivalent to that of the free conjugate. […]

For a further experiment, the system named is DDAH. The settings on record: DDAH as an ADMA sensor; binding affinity low; cited from earlier work.

Take `CN(C)C(=N)NCCCC(N)C(=O)O` (centres unmarked) [ADMA, asymmetric N,N-dimethyl arginine]: in the experiment on NOS, the “potency as inhibitors of NOS” value is on record as “equipotent”. For `CNC(=N)NCCC[C@H](N)C(=O)O` [LNMMA, L,N-monomethylarginine], the “potency as inhibitors of NOS” value in the experiment with NOS is on record as “equipotent”.

As for `CN=C(NC)NCCC[C@H](N)C(=O)O` [SDMA, symmetric dimethylarginine], the inhibition of polarization result with mutant DDAH (concentration equivalent to 10^−7 M free ADMA) is on record as “no detectable inhibition”. Besides, the Km (in general, the substrate concentration at which the rate is half of its maximum) in the experiment with DDAH is above 100 µM.

Turning to `N=C(N)NCCC[C@H](N)C(=O)O` [arginine], the inhibition of polarization result in the experiment with mutant DDAH (100-fold higher concentration than 10^−7 M free ADMA) was “no detectable inhibition”.
